Values joined by “and” are separate entries in the source; they are usually repeats but may differ in a detail not shown here. Equal entries are not always repeated.
Legend:
P2X4 [1] = molecular target: T1, P2X4 (Homo sapiens, UniProt Q99571); experiment: Assay B: human P2X4 receptor cell line, mitochondrial photina luminescence (agonist Bz-ATP at EC50); assay type: cell-based; design: host or cells: HEK 293 (recombinant, constitutively expressing; with mitochondrial photina in Assay B); details: HEK human P2X4 cell line, photina luminescence, agonist Bz-ATP at EC50, average; for Emax: read-out: human P2X4 Assay B avg Efficacy
T1 sequence (Q99571 1-388): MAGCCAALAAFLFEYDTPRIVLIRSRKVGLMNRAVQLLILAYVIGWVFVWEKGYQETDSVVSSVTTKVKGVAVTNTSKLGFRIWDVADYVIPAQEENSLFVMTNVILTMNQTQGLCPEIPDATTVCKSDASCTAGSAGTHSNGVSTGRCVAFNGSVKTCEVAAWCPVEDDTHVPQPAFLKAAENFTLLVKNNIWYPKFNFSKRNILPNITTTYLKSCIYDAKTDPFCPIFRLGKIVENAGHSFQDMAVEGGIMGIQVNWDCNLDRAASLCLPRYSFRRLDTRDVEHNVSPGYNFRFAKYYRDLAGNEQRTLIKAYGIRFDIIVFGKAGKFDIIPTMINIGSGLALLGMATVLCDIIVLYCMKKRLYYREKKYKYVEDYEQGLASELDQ
How it was run: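 Recombinant cell line constitutively expressing human P2X4 and mitochondrial photina photoprotein, reconstituted with coelenterazine. Receptor stimulated with Bz-ATP at EC50; calcium influx read immediately as luminescence.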

P2X4 [2] = molecular target: T1, P2X4; experiment: Assay A: human P2X4 receptor cell line, FLIPR calcium assay (Fluo-8, agonist Bz-ATP at EC80); assay type: cell-based; design: host or cells: HEK 293 (recombinant, constitutively expressing; with mitochondrial photina in Assay B); details: HEK human P2X4 cells, Fluo-8 FLIPR; for IC50: Bz-ATP at EC80, average values; for Emax: percentage of maximal inhibition, read-out: human P2X4 Assay A avg Efficacy
Protocol: A fluorescent imaging plate reader (FLEX/FLIPR station; Molecular Devices) was used to monitor intracellular calcium levels using the calcium-chelating dye Fluo-8 (Molecular Probes). […] Cells expressing purinergic receptors human P2X4 (HEK human P2X4: PerkinElmer, Product No.: AX-015-PCF) were plated at a density of 20,000 cells/well in poly-D-lysine-coated 384-well plates approximately 20 hours before beginning the assay. On the day of the assay, the medium was removed and 30 μl of dye buffer (Hank's balanced salt solution, 10 mM HEPES, 1.8 mM CaCl2), 1 mM MgCl2, 2 mM probenecid, 5 mM D-glucose monohydrate, 5 μM Fluo-8, pH=7.4) was added for 30 min at […] and 5% CO2. The antagonist in probenecid buffer (Hank's balanced salt solution, 10 mM HEPES, 1.8 mM CaCl2, 1 mM MgCl2, 2 mM probenecid, 5 mM D-glucose monohydrate, pH=7.4) was added in a volume of 10 μl and allowed to incubate for 30 min at room temperature. The final assay DMSO concentration is 0.5%. The agonist, Bz-ATP, is added in a volume of 10 μl at a concentration representing the EC80 value. The fluorescence was measured for an interval of 120 sec at 2 sec intervals and analyzed based on the increase in peak relative fluorescence units (RFU) compared to the basal fluorescence. Peak fluorescence was used to determine the response to agonist obtained at each concentration of antagonist by the following equation:
% Response=100*(RFU(drug)−RFU(control))/(RFU(DMSO)−RFU(control))
The compounds were tested in triplicates per plate and mean values were plotted in Excel XLFit to determine IC50 values, percentage of maximal inhibition and the Hill coefficients.

For `NS(=O)(=O)c1cc(NC(=O)Cc2ccccc2Cl)ccc1OC1CC[S+]([O-])C1` (centres unmarked) [Example 241, 2-(2-Chlorophenyl)-N-{4-[(1-oxidotetrahydrothiophen-3-yl)oxy]-3-sulfamoylphenyl}acetamide], the IC50 (P2X4 [1]) was greater than 16000 nM and the Emax (P2X4 [1]) was 34%.
`NS(=O)(=O)c1cc(NC(=O)Cc2c(Cl)cc(C(F)(F)F)cc2Cl)ccc1Oc1ccc(Cl)cc1` [Example 242, N-[4-(4-Chlorophenoxy)-3-sulfamoylphenyl]-2-[2,6-dichloro-4-(trifluoromethyl)phenyl]acetamide] was tested, and the IC50 (P2X4 [1]) was 2870 nM and > 16000 nM and the Emax (P2X4 [1]) was 71%.
`N#Cc1cc(Cl)c(CC(=O)Nc2ccc(Oc3ccc(Cl)cc3)c(S(N)(=O)=O)c2)cc1Cl` [Example 243, N-[4-(4-Chlorophenoxy)-3-sulfamoylphenyl]-2-(2,5-dichloro-4-cyanophenyl)acetamide] gave an IC50 (P2X4 [1]) of 2720 nM and an Emax (P2X4 [1]) of 70%.
With `NS(=O)(=O)c1cc(NC(=O)Cc2ccccc2)ccc1OCC1CC1` [Example 245, N-[4-(Cyclopropylmethoxy)-3-sulfamoylphenyl]-2-phenylacetamide] the IC50 (P2X4 [1]) was 5970 nM and the Emax (P2X4 [1]) was 68%.
`Cc1cc(C)cc(Oc2ccc(NC(=O)Cc3ccccc3)cc2S(N)(=O)=O)c1` [Example 246, N-[4-(3,5-Dimethylphenoxy)-3-sulfamoylphenyl]-2-phenylacetamide] was tested, and the IC50 (P2X4 [1]) was 949 nM and the Emax (P2X4 [1]) was 94%.
`NS(=O)(=O)c1cc(NC(=O)Cc2ccccc2)ccc1Oc1ccc(F)cc1F` [Example 247, N-[4-(2,4-Difluorophenoxy)-3-sulfamoylphenyl]-2-phenylacetamide] showed an IC50 (P2X4 [1]) of 1110 nM and an Emax (P2X4 [1]) of 59%.
In the case of `NS(=O)(=O)c1cc(NC(=O)Cc2ccccc2)ccc1Oc1ccc(F)cc1` [Example 248, N-[4-(4-Fluorophenoxy)-3-sulfamoylphenyl]-2-phenylacetamide], the IC50 (P2X4 [1]) is reported as 1280 nM and the Emax (P2X4 [1]) is reported as 62%.
Molecule `NS(=O)(=O)c1cc(NC(=O)Cc2ccccc2)ccc1Oc1cccc(F)c1` [Example 249, N-[4-(3-Fluorophenoxy)-3-sulfamoylphenyl]-2-phenylacetamide] has an IC50 (P2X4 [1]) of 544 nM and an Emax (P2X4 [1]) of 73%.
`COc1cccc(Oc2ccc(NC(=O)Cc3ccccc3)cc2S(N)(=O)=O)c1` [Example 250, N-[4-(3-Methoxyphenoxy)-3-sulfamoylphenyl]-2-phenylacetamide] gave an IC50 (P2X4 [1]) of 439 nM and an Emax (P2X4 [1]) of 82%.
`Cc1ccc(F)c(Oc2ccc(NC(=O)Cc3ccccc3)cc2S(N)(=O)=O)c1` [Example 251, N-[4-(2-Fluoro-5-methylphenoxy)-3-sulfamoylphenyl]-2-phenylacetamide] gave an IC50 (P2X4 [1]) of 392 nM and an Emax (P2X4 [1]) of 100%.
`NS(=O)(=O)c1cc(NC(=O)Cc2ccccc2)ccc1Oc1ccc(OC(F)(F)F)cc1` [Example 252, 2-Phenyl-N-{3-sulfamoyl-4-[4-(trifluoromethoxy)phenoxy]phenyl}acetamide] gave an IC50 (P2X4 [1]) of 6460 nM and an Emax (P2X4 [1]) of 93%.
`NS(=O)(=O)c1cc(NC(=O)Cc2ccccc2)ccc1Oc1cccc(C(F)(F)F)c1` [Example 253, 2-Phenyl-N-{3-sulfamoyl-4-[3-(trifluoromethyl)phenoxy]phenyl}acetamide] was tested, and the IC50 (P2X4 [1]) was 236 nM and the Emax (P2X4 [1]) was 71%.
In the case of `N#Cc1cccc(Oc2ccc(NC(=O)Cc3ccccc3)cc2S(N)(=O)=O)c1` [Example 255, N-[4-(3-Cyanophenoxy)-3-sulfamoylphenyl]-2-phenylacetamide], the IC50 (P2X4 [1]) is reported as 271 nM and the Emax (P2X4 [1]) is reported as 64%.
Molecule `NS(=O)(=O)c1cc(NC(=O)Cc2ccc(O)cc2)ccc1Oc1cccc(Cl)c1` [Example 256, N-[4-(3-Chlorophenoxy)-3-sulfamoylphenyl]-2-(4-hydroxyphenyl)acetamide] has an IC50 (P2X4 [2]) of 19 nM and an Emax (P2X4 [2]) of 75%.
Work on `COc1cc(C)cc(Cl)c1CC(=O)Nc1ccc(Oc2cccc(Cl)c2)c(S(N)(=O)=O)c1` [Example 257, 2-(2-Chloro-6-methoxy-4-methylphenyl)-N-[4-(3-chlorophenoxy)-3-sulfamoylphenyl]acetamide] yielded an IC50 (P2X4 [2]) of 355 nM and an Emax (P2X4 [2]) of 85%.
With `NS(=O)(=O)c1cc(NC(=O)Cc2c(F)cc(F)cc2Cl)ccc1Oc1cccc(Cl)c1` [Example 259, 2-(2-Chloro-4,6-difluorophenyl)-N-[4-(3-chlorophenoxy)-3-sulfamoylphenyl]acetamide] the IC50 (P2X4 [2]) was 145 nM and the Emax (P2X4 [2]) was 76%.
Work on `CC(C(=O)Nc1ccc(Oc2cccc(Cl)c2)c(S(N)(=O)=O)c1)c1c(Cl)cccc1Cl` (centres unmarked) [Example 260, N-[4-(3-Chlorophenoxy)-3-sulfamoylphenyl]-2-(2,6-dichlorophenyl)propanamide] yielded an IC50 (P2X4 [2]) of 2490 nM and an Emax (P2X4 [2]) of 90%.
Work on `[2H]c1c([2H])c([2H])c(Oc2ccc(NC(=O)Cc3ccccc3Cl)cc2S(N)(=O)=O)c([2H])c1[2H]` [Example 261, 2-(2-Chlorophenyl)-N-{4-[(^2H5)phenyloxy]-3-sulfamoylphenyl}acetamide] yielded an Emax (P2X4 [2]) of 89%.
In the case of `[2H]c1c([2H])c(Oc2ccc(NC(=O)Cc3ccccc3Cl)cc2S(N)(=O)=O)c([2H])c([2H])c1Cl` [Example 262, 2-(2-Chlorophenyl)-N-(4-{[4-chloro(^2H4)phenyl]oxy}-3-sulfamoylphenyl)acetamide], the IC50 (P2X4 [2]) is reported as 42 nM and the Emax (P2X4 [2]) is reported as 54%.
For `[2H]c1c([2H])c([2H])c(Oc2ccc(NC(=O)Cc3ccccc3Cl)cc2S(N)(=O)=O)c(Cl)c1[2H]` [Example 263, 2-(2-Chlorophenyl)-N-(4-{[2-chloro(^2H4)phenyl]oxy}-3-sulfamoylphenyl)acetamide], the Emax (P2X4 [2]) was 95%.
Molecule `CC1(C)CC(COc2ccc(NC(=O)Cc3ccccc3Cl)cc2S(N)(=O)=O)CCO1` (centres unmarked) [Example 265, 2-(2-Chlorophenyl)-N-{4-[(2,2-dimethyltetrahydro-2H-pyran-4-yl)methoxy]-3-sulfamoylphenyl}acetamide] has an IC50 (P2X4 [2]) of 416 nM and an Emax (P2X4 [2]) of 74%.
Molecule `NS(=O)(=O)c1cc(NC(=O)Cc2ccccc2Cl)ccc1OC[C@H]1[C@@H]2COC[C@@H]21` [Example 266, 2-(2-Chlorophenyl)-N-{4-[(1R,5S,6r)-3-oxabicyclo[3.1.0]hex-6-ylmethoxy]-3-sulfamoylphenyl}acetamide] has an IC50 (P2X4 [2]) of 63 nM and an Emax (P2X4 [2]) of 89%.
`NS(=O)(=O)c1cc(NC(=O)Cc2ccccc2Cl)ccc1OCC1(Cl)CCOCC1` [Example 267, 2-(2-Chlorophenyl)-N-{4-[(4-chlorotetrahydro-2H-pyran-4-yl)methoxy]-3-sulfamoylphenyl}acetamide] showed an IC50 (P2X4 [2]) of 4440 nM and an Emax (P2X4 [2]) of 76%.
`NS(=O)(=O)c1cc(NC(=O)Cc2ccccc2Cl)ccc1OCC1COCCO1` (centres unmarked) [Example 268, 2-(2-Chlorophenyl)-N-[4-(1,4-dioxan-2-ylmethoxy)-3-sulfamoylphenyl]acetamide] showed an Emax (P2X4 [2]) of 77%.
In the case of `NS(=O)(=O)c1cc(NC(=O)Cc2ccc3c(c2)OCCO3)ccc1Oc1ccc(Cl)cc1` [Example 276, N-[4-(4-Chlorophenoxy)-3-sulfamoylphenyl]-2-(2,3-dihydro-1,4-benzodioxin-6-yl)acetamide], the IC50 (P2X4 [1]) is reported as greater than 50000 nM and the Emax (P2X4 [1]) is reported as 35%.
In the case of `NS(=O)(=O)c1cc(NC(=O)Cc2cc3c(cc2Cl)OCCO3)ccc1Oc1cccc(Cl)c1` [Example 277, 2-(7-Chloro-2,3-dihydro-1,4-benzodioxin-6-yl)-N-[4-(3-chlorophenoxy)-3-sulfamoylphenyl]acetamide], the IC50 (P2X4 [1]) is reported as 185 nM and the Emax (P2X4 [1]) is reported as 45%.
Work on `NS(=O)(=O)c1cc(NC(=O)Cc2ccc(F)cc2Cl)ccc1OCC1CCOCC1` [Example 282, 2-(2-Chloro-4-fluorophenyl)-N-[3-sulfamoyl-4-(tetrahydro-2H-pyran-4-ylmethoxy)phenyl]acetamide] yielded an Emax (P2X4 [2]) of 82%.
